2 compounds from US12458630B2, “Combination therapy for cancer” (The Regents of the University of California, priority 2020, dated 2025) can be followed below.

The test system of assay [1] is MIA PaCa-2 cells. Put plainly: LC3 puncta / LC3-LAMP1 immunofluorescence. Type of assay: cell-based, human. The note with it: MIA PaCa-2 cells +/- MRT68921. As for the experimental part:
(§1) Cell imaging. Immunostaining was performed as described^44. Cells were cultured on coverslips and fixed in 4% PFA for 10 min at room temperature. After washing twice in PBS, cells were incubated in PBS containing 10% FBS to block nonspecific sites of antibody adsorption. The cells were then incubated with the appropriate primary antibodies (diluted 1:100) and secondary antibodies (diluted 1:500) in PBS containing 10% FBS with or without 0.1% saponin. For cell macropinosome visualization, 24 hrs after seeding, the cells were serum starved for 18 hrs. Macropinosomes were marked using a high-molecular-mass (70 KD) TMR-Dextran (Invitrogen)-uptake assay, wherein TMR-DEX was added to serum-free medium at a final concentration of 1 mg/ml for 30 min at 37° C. At the end of the incubation period, the cells were rinsed five times in cold PBS and immediately fixed in 4% PFA. For tissue macropinosome visualization^45, fresh pancreata were cut into pieces with an approximate 5-mm cuboidal shape. […]
(§2) Quantification and statistics. To quantify the number of LC3 puncta, a total of 30 cells were recorded and analyzed using the LAS X measurement program on the TCS SPE Leica. Macropinosomes were quantified by using the ‘Analyze Particles’ feature in ImageJ (National Institutes of Health). […]

The subject of assay [2] is 1444 primary human PDAC cells. Put plainly: TMR-DEX macropinosome uptake assay. Type of assay: cell-based. The note with it: IKKα^Δ 1444 cells, 75 μM EIPA. As to the method: as §1, §2
Assay [3] has as its system KC6141 cells. The experiment in a line: TMR-DEX macropinosome uptake assay. The following applies: WT and IKKα-KD KC6141 cells. The class given is cell-based, mouse. As to the method: as §1, §2
Assay [4] concerns 1444 primary human PDAC cells. The experiment in a line: Cell viability assay (CCK-8). Type of assay: cell-based. As to the method: (§3) In some embodiments, cells were plated in 96-well plates coated with or without ECM at a density of 3000 cells (MIA PaCa-2, 1444, 1305, COLO 357/FG) or 1500 cells (KC6141) per well and incubated overnight prior to treatment. EIPA (10.5 μM), IPI549 (600 nM), MBQ-167 (500 nM), MRT68921 (600 nM) or erlotinib (2 μM, Sigma), ML385 (10 μM, Sigma), HCQ (10 μM or 80 μM) or their combinations were added to the wells for 24, 72 or 96 hrs. Next, 10 μL of CCK-8 was added to each well. The optical density was read at 450 nm using a microplate reader (FilterMax F5, Molecular Devices, USA) at day 0, 1, 2, 3, and 4. For glutamine-deprivation assays, cells in 96-well plates were rinsed briefly in PBS and incubated in the 0.2 mM glutamine. Glutamine-free DMEM medium was supplemented with 0.2 mM glutamine in the presence of 10% dialyzed FBS and 25 mM HEPES. For glucose-deprivation assays, cells in 96-well plates were rinsed briefly in PBS and incubated in the 0.5 mM glucose. Glucose-free DMEM medium was supplemented with 0.5 mM glucose in the presence of 10% dialyzed FBS and 25 mM HEPES. For some conditions, the medium was supplemented with a final concentration of 2% BSA (Fraction V, fatty-acid-, nuclease and protease-free, Calbiochem). For all experiments, media were replaced every 24 hrs. Viable cell counts were obtained using CCK-8 assay described as above.

Assay [5] relates to 1305 primary human PDAC cells. The experiment in a line: Cell viability assay (CCK-8). Type of assay: cell-based. The following applies: IKKα^low 1305 cells, 3 days. As for the experimental part: as §3

Entries after “also recorded” stand apart in the source; their conditions may differ.

Regarding `CN1CCc2cc(Nc3ncc(C4CC4)c(NCCCNC(=O)C4CCC4)n3)ccc2C1` [MRT68921], the “autophagosome (LC3) puncta per cell” value in assay [1] is “less autophagosomes; also recorded: reduced autophagosomes; also recorded: significantly abolished”.

For `CCN(c1nc(N)c(C(=O)N=C(N)N)nc1Cl)C(C)C` [EIPA, 5-(N-ethyl-N-isopropyl) amiloride], the “macropinocytosis (TMR-DEX labeling)” value in assay [2] is “inhibited; also recorded: suppressed”. For the same compound, in assay [3], the “MP (macropinosomes)” value was “inhibited MP”. Also, the “sensitivity of IKKα^Δ and ATG7^Δ cells to EIPA (CCK-8)” value in assay [4] (IKKα^Δ / ATG7^Δ 1444 cells (functional TP53)) is recorded as “highly sensitive”. The “cell viability (total viable cells relative to day 0)” value in assay [4] (WT, IKKα^Δ and ATG7^Δ 1444 cells, complete medium, EIPA 10.5 μM, days 0-4) is “suppression of cell viability”. Further, the “sensitivity to single agent (cell viability)” value in assay [5] is reported as “very sensitive”.
